Numbering of substitutions follows the chain as printed.
What was measured:
[1] = target: T1, purified wild type MGL (wt-MGLL 6H-11-313) (Homo sapiens, UniProt Q99685); test: MGL enzyme activity assay (4MU-B cleavage), wild type MGL; type: biochemical; conditions: wild type MGL 5 nM, 4MU-B 10 μM, 37° C.; read-out: MGL wild type inh IC50
T1 construct: purified wild type MGL (wt-MGLL 6H-11-313)
T1 sequence (Q99685 1-303): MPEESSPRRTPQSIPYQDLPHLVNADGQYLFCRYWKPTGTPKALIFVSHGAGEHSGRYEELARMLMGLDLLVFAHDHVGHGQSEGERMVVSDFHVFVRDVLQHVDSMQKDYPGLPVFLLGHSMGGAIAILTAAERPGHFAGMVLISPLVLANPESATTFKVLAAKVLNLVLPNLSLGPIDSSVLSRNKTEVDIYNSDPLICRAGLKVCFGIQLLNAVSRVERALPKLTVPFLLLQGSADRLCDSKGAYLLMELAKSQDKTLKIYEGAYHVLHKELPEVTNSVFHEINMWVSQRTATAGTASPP
Procedure, shortened: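 Enzyme in 20 mM PIPES pH 7.0, 150 mM NaCl, 0.001% Tween 20 with 4MU-B at 10 μM final and MGL at 5 nM final; compounds 17 to 0.0003 μM final, enzyme added last. Fluorescence (ex 335/em 440 nm) followed at 37° C for 5 min; IC50 from fit of fractional activity versus inhibitor concentration.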

mutant MGL = target: T2, mutant MGL (Homo sapiens, UniProt Q99685, L169S/L176S); test: MGL ThermoFluor assay - mutant; type: binding; conditions: qNMR-corrected compound concentration; read-out: MGL mutant ThermoFluor qKd
T2 construct: purified mutant MGL (mut-MGLL 11-313 L179S L186S)
T2 sequence (Q99685 1-303 L169S/L176S): T1 sequence (Q99685 1-303) with L169S, L176S
Protocol: The ThermoFluor (TF) assay is a 384-well plate-based binding assay that measures thermal stability of proteins^1,2. The experiments were carried out using instruments available from Johnson & Johnson Pharmaceutical Research & Development, LLC. TF dye used in all experiments was 1,8-ANS (Invitrogen: A-47). Final TF assay conditions used for MGL studies were 0.07 mg/ml of mutant MGL, 100 μM ANS, 200 mM NaCl, 0.001% Tween-20 in 50 mM PIPES (pH=7.0).
Screening compound plates contained 100% DMSO compound solutions at a single concentration. For follow-up concentration-response studies, compounds were arranged in a pre-dispensed plate (Greiner Bio-one: 781280), wherein compounds were serially diluted in 100% DMSO across 11 columns within a series. Columns 12 and 24 were used as DMSO reference and contained no compound. For both single and multiple compound concentration-response experiments, the compound aliquots (46 nL) were robotically predispensed directly into 384-well black assay plates (Abgene: TF-0384/k) using the Hummingbird liquid handler. Following compound dispension, protein and dye solutions were added to achieve the final assay volume of 3 μL. The assay solutions were overlayed with 1 μL of silicone oil (Fluka, type DC 200: 85411) to prevent evaporation.
Bar-coded assay plates were robotically loaded onto a thermostatically controlled PCR-type thermal block and then heated from 40 to 90° C. degrees at a ramp-rate of 1° C./min for all experiments. Fluorescence was measured by continuous illumination with UV light (Hamamatsu LC6), supplied via fiber optics and filtered through a band-pass filter (380-400 nm; >6 OD cutoff). Fluorescence emission of the entire 384-well plate was detected by measuring light intensity using a CCD camera (Sensys, Roper Scientific) filtered to detect 500±25 nm, resulting in simultaneous and independent readings of all 384 wells. A single image with 20-sec exposure time was collected at each temperature, and the sum of the pixel intensity in a given area of the assay plate was recorded vs temperature and fit to standard equations to yield the Tm^1. • 1. Pantoliano, M. W., Petrella, E. C., Kwasnoski, J. D., Lobanov, V. S., Myslik, J., Graf, E., Carver, T., Asel, E., Springer, B. A., Lane, P., and Salemme, F. R. (2001) J Biomol Screen 6, 429-40. • 2. Matulis, D., Kranz, J. K., Salemme, F. R., and Todd, M. J. (2005) Biochemistry 44, 5258-66.
The Kd values for certain compounds of Formula (I) were determined from a fit of the equation to the concentration-response plot of the fractional activity as a function of […]. For some experiments, quantitative NMR spectroscopy (qNMR) was used to measure concentration of the initial 100% DMSO compound solutions and, using the same fitting method, qKd values were determined.

[2] = tested on: MGL (rat brain homogenate); test: 2-AG accumulation assay in rat brain homogenate; type: biochemical; conditions: compound 1 μM, percent of vehicle 2-AG accumulation
Procedure, shortened: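 Rat brain homogenate was incubated with compound for 15 min at 37° C., after which CaCl2 was added to a final concentration of 10 mM and incubation continued for 15 min at 37° C. in 5 mL total. Reactions were stopped with 6 mL of 2:1 chloroform/methanol, and 2-AG accumulated in the organic phase was quantified by HPLC/MS.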

Structure (SMILES) | IC50 [1] | Kd (mutant MGL) | Rat Brain 2AG % VehCntrl (%) @1 μM [2]
Cc1cc2c(ccn2-c2ccc(F)cc2)cc1C(=O)N1CC(N[C@H]2CCN(C(=O)c3nccs3)C2)C1 [Cpd 224, (3S)-N-(1-{[1-(4-Fluorophenyl)-6-methyl-1H-indol-5-yl]carbonyl}azetidin-3-yl)-1-(1,3-thiazol-2-ylcarbonyl)pyrrolidin-3-amine] | 224 nM | 218 nM | –
O=C(c1ccc2c(-c3cccc(F)c3)c[nH]c2c1)N1CC(N[C@H]2CCN(C(=O)c3cscn3)C2)C1 [Cpd 203, (3S)-N-(1-{[3-(3-Fluorophenyl)-1H-indol-6-yl]carbonyl}azetidin-3-yl)-1-(1,3-thiazol-4-ylcarbonyl)pyrrolidin-3-amine] | 50.4 nM | 264 nM | 238%
O=C(c1ccc2c(-c3cccc(F)c3)c[nH]c2c1)N1CC(N[C@H]2CCN(C(=O)c3ccccc3)C2)C1 [Cpd 204, (3S)-N-(1-{[3-(3-Fluorophenyl)-1H-indol-6-yl]carbonyl}azetidin-3-yl)-1-(phenylcarbonyl)pyrrolidin-3-amine] | 344 nM | 186 nM | –
O=C(c1cscn1)N1CC[C@H](NC2CN(C(=O)c3cccc4c3ccn4-c3ccc(F)cc3)C2)C1 [Cpd 215, (3S)-N-(1-{[1-(4-Fluorophenyl)-1H-indol-4-yl]carbonyl}azetidin-3-yl)-1-(1,3-thiazol-4-ylcarbonyl)pyrrolidin-3-amine] | 668 nM | 1440 nM | –
CN(C(=O)Cn1ccc2cc(C(=O)N3CC(N[C@H]4CCN(C(=O)c5nccs5)C4)C3)ccc21)c1ccccc1 [Cpd 222, N-Methyl-N-phenyl-2-{5-[(3-{[(3S)-1-(1,3-thiazol-2-ylcarbonyl)pyrrolidin-3-yl]amino}azetidin-1-yl)carbonyl]-1H-indol-1-yl}acetamide] | 1680 nM | 3240 nM | –
O=C(c1nccs1)N1CC[C@H](NC2CN(C(=O)c3cccc4c3ccn4-c3ccc(F)cc3)C2)C1 [Cpd 214, (3S)-N-(1-{[1-(4-Fluorophenyl)-1H-indol-4-yl]carbonyl}azetidin-3-yl)-1-(1,3-thiazol-2-ylcarbonyl)pyrrolidin-3-amine] | 106 nM | 530 nM | 524%
O=C(c1ccc2c(-c3cccc(F)c3)c[nH]c2c1)N1CC(N[C@H]2CCN(C(=O)c3nccs3)C2)C1 [Cpd 202, (3S)-N-(1-{[3-(3-Fluorophenyl)-1H-indol-6-yl]carbonyl}azetidin-3-yl)-1-(1,3-thiazol-2-ylcarbonyl)pyrrolidin-3-amine] | 11 nM | 56.3 nM | 363%
O=C(c1cscn1)N1CC[C@H](NC2CN(C(=O)c3cccc4c3CCN4c3ccc(F)cc3)C2)C1 [Cpd 217, (3S)-N-(1-{[1-(4-Fluorophenyl)-2,3-dihydro-1H-indol-4-yl]carbonyl}azetidin-3-yl)-1-(1,3-thiazol-4-ylcarbonyl)pyrrolidin-3-amine] | 723 nM | 1960 nM | –
O=C(c1nccs1)N1CC[C@H](NC2CN(C(=O)c3ccc4c(ccn4-c4ccc(F)cc4)c3Cl)C2)C1 [Cpd 223, (3S)-N-(1-{[4-Chloro-1-(4-fluorophenyl)-1H-indol-5-yl]carbonyl}azetidin-3-yl)-1-(1,3-thiazol-2-ylcarbonyl)pyrrolidin-3-amine] | 14 nM | 143 nM | –
Cn1cc(-c2cccc(F)c2)c2ccc(C(=O)N3CC(N[C@H]4CCN(C(=O)c5ccccc5)C4)C3)cc21 [Cpd 207, (3S)-N-(1-{[3-(3-Fluorophenyl)-1-methyl-1H-indol-6-yl]carbonyl}azetidin-3-yl)-1-(phenylcarbonyl)pyrrolidin-3-amine] | 63.9 nM | 100 nM | 238%
O=C(c1nccs1)N1CC[C@H](NC2CN(C(=O)c3cc4ccn(-c5ccc(F)cc5)c4cc3Cl)C2)C1 [Cpd 225, (3S)-N-(1-{[6-Chloro-1-(4-fluorophenyl)-1H-indol-5-yl]carbonyl}azetidin-3-yl)-1-(1,3-thiazol-2-ylcarbonyl)pyrrolidin-3-amine] | 39.2 nM | 102 nM | –
O=C(c1nccs1)N1CC[C@H](NC2CN(C(=O)c3cn(-c4cccc(F)c4)c4ccccc34)C2)C1 [Cpd 218, (3S)-N-(1-{[1-(3-Fluorophenyl)-1H-indol-3-yl]carbonyl}azetidin-3-yl)-1-(1,3-thiazol-2-ylcarbonyl)pyrrolidin-3-amine] | 1890 nM | 3450 nM | –
Cn1cc(Cc2ccc(F)cc2)c2ccc(C(=O)N3CC(N[C@H]4CCN(C(=O)c5nccs5)C4)C3)cc21 [Cpd 221, (3S)-N-(1-{[3-(4-Fluorobenzyl)-1-methyl-1H-indol-6-yl]carbonyl}azetidin-3-yl)-1-(1,3-thiazol-2-ylcarbonyl)pyrrolidin-3-amine] | < 5 nM | 88.5 nM | 878%
Cn1cc(-c2cccc(F)c2)c2ccc(C(=O)N3CC(N[C@H]4CCN(C(=O)c5cscn5)C4)C3)cc21 [Cpd 206, (3S)-N-(1-{[3-(3-Fluorophenyl)-1-methyl-1H-indol-6-yl]carbonyl}azetidin-3-yl)-1-(1,3-thiazol-4-ylcarbonyl)pyrrolidin-3-amine] | 81 nM | 122 nM | 267%
O=C(c1ccc2c(ccn2CC(F)F)c1)N1CC(N[C@H]2CCN(C(=O)c3nccs3)C2)C1 [Cpd 213, (3S)-N-(1-{[1-(2,2-Difluoroethyl)-1H-indol-5-yl]carbonyl}azetidin-3-yl)-1-(1,3-thiazol-2-ylcarbonyl)pyrrolidin-3-amine] | 1390 nM | 963 nM | –
O=C(c1nccs1)N1CC[C@H](NC2CN(C(=O)c3cccc4c3CCN4c3ccc(F)cc3)C2)C1 [Cpd 216, (3S)-N-(1-{[1-(4-Fluorophenyl)-2,3-dihydro-1H-indol-4-yl]carbonyl}azetidin-3-yl)-1-(1,3-thiazol-2-ylcarbonyl)pyrrolidin-3-amine] | 94.5 nM | 462 nM | 260%
O=C(c1nccs1)N1CC[C@H](NC2CN(C(=O)c3cn(-c4ccc(F)cc4)c4ccccc34)C2)C1 [Cpd 219, (3S)-N-(1-{[1-(4-Fluorophenyl)-1H-indol-3-yl]carbonyl}azetidin-3-yl)-1-(1,3-thiazol-2-ylcarbonyl)pyrrolidin-3-amine] | 4980 nM | 4980 nM | –
Cn1cc(-c2cccc(F)c2)c2ccc(C(=O)N3CC(N[C@H]4CCN(C(=O)c5nccs5)C4)C3)cc21 [Cpd 205, (3S)-N-(1-{[3-(3-Fluorophenyl)-1-methyl-1H-indol-6-yl]carbonyl}azetidin-3-yl)-1-(1,3-thiazol-2-ylcarbonyl)pyrrolidin-3-amine] | < 5 nM | 21.4 nM | 446%

Reference: US8748417B2, “Amino-pyrrolidine-azetidine diamides as monoacylglycerol lipase inhibitors” (Janssen Pharmaceutica, NV, priority 2010, dated 2014)
